# Source: publication PMC12090182, “Repurposing of the RIPK1-Selective Benzo[1,4]oxazepin-4-one Scaffold for the Development of a Type III LIMK1/2 Inhibitor” (ACS Chemical Biology, 2025)
# Assays:
# Type in all cases: cell-based
# Settings in all cases: HEK-293T; 1 μM inhibitor, HEK293T cells
# [1] = molecular target: DAPK2 (Homo sapiens, UniProt Q9UIK4)
# Description: (§1) For plate preparation, a transfection mix was prepared in white 384-well small-volume plates (Greiner, cat. no. 784075) by preplating 3 μL of 20 μL/mL FuGene HD (Promega, cat. no. E2311), diluted in an Opti-MEM medium (Gibco, cat. no. 11058-021). One μL of DNA from both DNA vector source plates of the K192 kit was added using an Echo 550 acoustic dispenser (Beckman Coulter). The mix was incubated for 30 min, and 6 μL of HEK293T cells in an Opti-MEM medium was added. The proteins were allowed to express for 20 h. After expression, Tracer K10 was added using the concentrations recommended in the K192 technical manual and a 1 μM inhibitor was added to every second well. […] Five μL of substrate solution was added to every well, and filtered luminescence was measured on a PHERAstar plate reader (BMG Labtech) equipped with a luminescence filter pair (450 nm BP filter (donor) and a 610 nm LP filter (acceptor)). For every kinase, occupancy was calculated and plotted using GraphPad Prism 10 (Table S5).
# [2] = molecular target: RPS6KA2 (Homo sapiens, UniProt Q15349)
# Description: as §1
# [3] = molecular target: ULK3 (Homo sapiens, UniProt Q6PHR2)
# Description: as §1
# [4] = molecular target: CDK6 (Homo sapiens, UniProt Q00534)
# Description: as §1
# [5] = molecular target: NIM1K (Homo sapiens, UniProt Q8IY84)
# Description: as §1
# [6] = molecular target: MKNK2 (Homo sapiens, UniProt Q9HBH9)
# Description: as §1
# [7] = molecular target: EPHA4 (Homo sapiens, UniProt P54764)
# Description: as §1
# [8] = molecular target: PTK2B (Homo sapiens, UniProt Q14289)
# Description: as §1
# [9] = molecular target: MAPK9 (Homo sapiens, UniProt P45984)
# Description: as §1
# [10] = molecular target: MUSK (Homo sapiens, UniProt O15146)
# Description: as §1
# [11] = molecular target: FGFR2 (Homo sapiens, UniProt P21802)
# Description: as §1
# [12] = molecular target: NEK1 (Homo sapiens, UniProt Q96PY6)
# Description: as §1
# [13] = molecular target: MYLK4 (Homo sapiens, UniProt Q86YV6)
# Description: as §1
# [14] = molecular target: MAP3K4 (Homo sapiens, UniProt Q9Y6R4)
# Description: as §1
# [15] = molecular target: PRKACA (Homo sapiens, UniProt P17612)
# Description: as §1
# [16] = molecular target: NEK9 (Homo sapiens, UniProt Q8TD19)
# Description: as §1
# [17] = molecular target: CSNK1A1L (Homo sapiens, UniProt Q8N752)
# Description: as §1
# [18] = molecular target: FER (Homo sapiens, UniProt P16591)
# Description: as §1
# [19] = molecular target: JAK3 (Homo sapiens, UniProt P52333)
# Description: as §1
# [20] = molecular target: AKT2 (Homo sapiens, UniProt P31751)
# Description: as §1
# [21] = molecular target: MYLK3 (Homo sapiens, UniProt Q32MK0)
# Description: as §1
# [22] = molecular target: CDKL5 (Homo sapiens, UniProt O76039)
# Description: as §1
# [23] = molecular target: MAPK8 (Homo sapiens, UniProt P45983)
# Description: as §1
# [24] = molecular target: MELK (Homo sapiens, UniProt Q14680)
# Description: as §1
# [25] = molecular target: PRKCE (Homo sapiens, UniProt Q02156)
# Description: as §1
# [26] = molecular target: TXK (Homo sapiens, UniProt P42681)
# Description: as §1
# [27] = molecular target: MLTK (Homo sapiens, UniProt Q9NYL2)
# Description: as §1
# [28] = molecular target: MAP4K5 (Homo sapiens, UniProt Q9Y4K4)
# Description: as §1
# [29] = molecular target: ABL2 (Homo sapiens, UniProt P42684)
# Description: as §1
# [30] = molecular target: NEK3 (Homo sapiens, UniProt P51956)
# Description: as §1
# [31] = molecular target: PLK4 (Homo sapiens, UniProt O00444)
# Description: as §1
# [32] = molecular target: PAK4 (Homo sapiens, UniProt O96013)
# Description: as §1
# [33] = molecular target: PHKG2 (Homo sapiens, UniProt P15735)
# Description: as §1
# [34] = molecular target: RON (Homo sapiens, UniProt Q04912)
# Description: as §1
# [35] = molecular target: NTRK2 (Homo sapiens, UniProt Q16620)
# Description: as §1
# [36] = molecular target: TBK1 (Homo sapiens, UniProt Q9UHD2)
# Description: as §1
# [37] = molecular target: INSR (Homo sapiens, UniProt P06213)
# Description: as §1
# NEK1, sequence (Q96PY6 whole entry): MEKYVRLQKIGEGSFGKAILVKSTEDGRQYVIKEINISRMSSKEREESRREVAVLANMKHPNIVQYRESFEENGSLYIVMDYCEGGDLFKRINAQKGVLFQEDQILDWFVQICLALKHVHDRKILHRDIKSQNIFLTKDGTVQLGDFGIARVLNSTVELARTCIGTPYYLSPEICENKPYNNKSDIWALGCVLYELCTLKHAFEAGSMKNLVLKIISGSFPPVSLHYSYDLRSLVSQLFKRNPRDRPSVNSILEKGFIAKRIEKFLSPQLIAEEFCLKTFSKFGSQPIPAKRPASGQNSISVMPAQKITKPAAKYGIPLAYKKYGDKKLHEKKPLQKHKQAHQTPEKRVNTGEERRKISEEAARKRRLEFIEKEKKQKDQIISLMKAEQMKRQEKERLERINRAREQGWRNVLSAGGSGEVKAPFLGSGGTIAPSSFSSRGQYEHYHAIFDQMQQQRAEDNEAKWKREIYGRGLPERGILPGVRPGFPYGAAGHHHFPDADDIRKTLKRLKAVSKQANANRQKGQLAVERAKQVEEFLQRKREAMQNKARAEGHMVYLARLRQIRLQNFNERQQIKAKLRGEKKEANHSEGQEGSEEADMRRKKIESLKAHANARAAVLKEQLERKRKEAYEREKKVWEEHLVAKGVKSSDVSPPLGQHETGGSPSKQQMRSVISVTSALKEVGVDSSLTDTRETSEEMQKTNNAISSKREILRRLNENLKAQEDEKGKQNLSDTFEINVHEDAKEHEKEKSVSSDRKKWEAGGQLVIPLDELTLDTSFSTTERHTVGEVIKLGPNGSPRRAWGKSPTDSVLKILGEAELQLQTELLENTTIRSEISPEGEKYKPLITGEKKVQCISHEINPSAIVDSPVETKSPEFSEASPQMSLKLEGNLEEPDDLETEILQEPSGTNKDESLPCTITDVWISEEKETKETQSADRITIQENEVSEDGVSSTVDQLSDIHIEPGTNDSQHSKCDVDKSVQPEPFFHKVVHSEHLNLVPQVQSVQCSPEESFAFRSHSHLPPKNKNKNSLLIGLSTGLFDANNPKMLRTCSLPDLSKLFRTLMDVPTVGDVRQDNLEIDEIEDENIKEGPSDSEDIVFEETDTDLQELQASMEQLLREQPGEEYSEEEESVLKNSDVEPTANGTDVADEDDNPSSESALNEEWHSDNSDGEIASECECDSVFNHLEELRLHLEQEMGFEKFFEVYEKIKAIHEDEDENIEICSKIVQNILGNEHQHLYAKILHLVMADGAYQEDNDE
# MYLK3, sequence (Q32MK0 whole entry): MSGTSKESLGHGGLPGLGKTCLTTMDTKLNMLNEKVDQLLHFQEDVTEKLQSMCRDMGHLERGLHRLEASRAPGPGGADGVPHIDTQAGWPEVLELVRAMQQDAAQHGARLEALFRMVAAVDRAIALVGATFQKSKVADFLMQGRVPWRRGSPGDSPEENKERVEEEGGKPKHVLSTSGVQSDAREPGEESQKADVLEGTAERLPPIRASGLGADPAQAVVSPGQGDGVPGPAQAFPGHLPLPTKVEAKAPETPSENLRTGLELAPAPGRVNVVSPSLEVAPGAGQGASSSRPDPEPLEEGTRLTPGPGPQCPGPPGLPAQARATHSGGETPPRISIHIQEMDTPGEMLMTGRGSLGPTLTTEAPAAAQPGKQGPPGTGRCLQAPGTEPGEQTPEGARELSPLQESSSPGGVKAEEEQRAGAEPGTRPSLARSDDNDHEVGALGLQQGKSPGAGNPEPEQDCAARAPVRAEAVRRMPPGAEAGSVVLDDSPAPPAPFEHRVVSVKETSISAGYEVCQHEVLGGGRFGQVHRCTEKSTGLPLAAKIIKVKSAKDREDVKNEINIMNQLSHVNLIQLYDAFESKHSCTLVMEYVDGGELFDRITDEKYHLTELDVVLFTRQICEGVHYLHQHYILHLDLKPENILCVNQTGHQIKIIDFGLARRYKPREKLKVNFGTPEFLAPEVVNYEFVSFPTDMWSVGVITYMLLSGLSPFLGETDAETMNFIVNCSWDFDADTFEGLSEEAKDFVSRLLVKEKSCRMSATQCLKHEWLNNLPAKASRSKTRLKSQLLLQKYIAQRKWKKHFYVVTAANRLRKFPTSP
# MYLK4, sequence (Q86YV6 whole entry): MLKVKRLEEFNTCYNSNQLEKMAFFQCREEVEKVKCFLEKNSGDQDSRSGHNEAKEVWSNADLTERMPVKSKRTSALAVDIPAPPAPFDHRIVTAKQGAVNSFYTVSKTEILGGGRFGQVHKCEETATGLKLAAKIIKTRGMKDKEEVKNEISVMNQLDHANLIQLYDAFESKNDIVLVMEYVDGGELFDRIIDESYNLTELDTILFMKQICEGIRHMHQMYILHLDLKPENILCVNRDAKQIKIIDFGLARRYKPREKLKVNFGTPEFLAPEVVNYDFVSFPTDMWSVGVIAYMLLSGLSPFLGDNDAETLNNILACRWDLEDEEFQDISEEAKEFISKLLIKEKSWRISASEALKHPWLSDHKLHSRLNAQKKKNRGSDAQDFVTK
# TBK1, sequence (Q9UHD2 whole entry): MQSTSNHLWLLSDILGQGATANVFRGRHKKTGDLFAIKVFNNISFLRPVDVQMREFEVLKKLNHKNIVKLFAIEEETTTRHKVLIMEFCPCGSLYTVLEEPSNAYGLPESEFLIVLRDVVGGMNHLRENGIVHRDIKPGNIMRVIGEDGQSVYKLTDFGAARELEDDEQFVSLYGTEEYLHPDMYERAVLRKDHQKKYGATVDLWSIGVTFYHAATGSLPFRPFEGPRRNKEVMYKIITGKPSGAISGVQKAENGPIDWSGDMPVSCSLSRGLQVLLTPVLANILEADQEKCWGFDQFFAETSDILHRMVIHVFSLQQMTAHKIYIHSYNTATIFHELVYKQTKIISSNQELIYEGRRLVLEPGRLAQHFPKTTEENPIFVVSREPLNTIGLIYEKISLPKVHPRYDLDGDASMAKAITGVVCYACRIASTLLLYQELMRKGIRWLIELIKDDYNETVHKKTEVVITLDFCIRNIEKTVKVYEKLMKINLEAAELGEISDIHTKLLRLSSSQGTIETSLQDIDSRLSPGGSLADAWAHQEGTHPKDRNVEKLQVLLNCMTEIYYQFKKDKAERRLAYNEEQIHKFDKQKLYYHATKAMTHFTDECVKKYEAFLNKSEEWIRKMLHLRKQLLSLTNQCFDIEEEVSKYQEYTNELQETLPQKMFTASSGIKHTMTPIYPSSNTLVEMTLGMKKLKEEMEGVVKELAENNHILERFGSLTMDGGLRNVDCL
# FGFR2, sequence (P21802 22-821): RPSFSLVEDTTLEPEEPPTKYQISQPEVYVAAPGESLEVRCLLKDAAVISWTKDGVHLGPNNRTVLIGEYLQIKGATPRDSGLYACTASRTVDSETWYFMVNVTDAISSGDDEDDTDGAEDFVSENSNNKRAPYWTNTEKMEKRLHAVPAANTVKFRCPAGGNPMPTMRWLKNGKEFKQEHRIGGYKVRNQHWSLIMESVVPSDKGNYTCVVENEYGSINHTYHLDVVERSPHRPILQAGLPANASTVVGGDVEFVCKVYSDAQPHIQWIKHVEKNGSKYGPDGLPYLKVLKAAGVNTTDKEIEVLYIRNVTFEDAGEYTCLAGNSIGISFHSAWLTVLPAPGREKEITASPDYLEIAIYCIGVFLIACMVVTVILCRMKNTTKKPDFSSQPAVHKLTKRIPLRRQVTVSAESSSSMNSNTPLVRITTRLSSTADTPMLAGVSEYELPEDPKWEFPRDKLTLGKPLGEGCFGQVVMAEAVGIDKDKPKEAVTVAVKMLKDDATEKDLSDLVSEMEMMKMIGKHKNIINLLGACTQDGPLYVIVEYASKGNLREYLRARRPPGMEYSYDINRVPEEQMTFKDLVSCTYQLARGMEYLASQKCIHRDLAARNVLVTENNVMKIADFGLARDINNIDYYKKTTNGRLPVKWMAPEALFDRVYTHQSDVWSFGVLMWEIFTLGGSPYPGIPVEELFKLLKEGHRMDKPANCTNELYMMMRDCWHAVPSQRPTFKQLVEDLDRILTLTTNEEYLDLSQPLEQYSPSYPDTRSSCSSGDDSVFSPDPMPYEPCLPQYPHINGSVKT
# RPS6KA2, sequence (Q15349 whole entry): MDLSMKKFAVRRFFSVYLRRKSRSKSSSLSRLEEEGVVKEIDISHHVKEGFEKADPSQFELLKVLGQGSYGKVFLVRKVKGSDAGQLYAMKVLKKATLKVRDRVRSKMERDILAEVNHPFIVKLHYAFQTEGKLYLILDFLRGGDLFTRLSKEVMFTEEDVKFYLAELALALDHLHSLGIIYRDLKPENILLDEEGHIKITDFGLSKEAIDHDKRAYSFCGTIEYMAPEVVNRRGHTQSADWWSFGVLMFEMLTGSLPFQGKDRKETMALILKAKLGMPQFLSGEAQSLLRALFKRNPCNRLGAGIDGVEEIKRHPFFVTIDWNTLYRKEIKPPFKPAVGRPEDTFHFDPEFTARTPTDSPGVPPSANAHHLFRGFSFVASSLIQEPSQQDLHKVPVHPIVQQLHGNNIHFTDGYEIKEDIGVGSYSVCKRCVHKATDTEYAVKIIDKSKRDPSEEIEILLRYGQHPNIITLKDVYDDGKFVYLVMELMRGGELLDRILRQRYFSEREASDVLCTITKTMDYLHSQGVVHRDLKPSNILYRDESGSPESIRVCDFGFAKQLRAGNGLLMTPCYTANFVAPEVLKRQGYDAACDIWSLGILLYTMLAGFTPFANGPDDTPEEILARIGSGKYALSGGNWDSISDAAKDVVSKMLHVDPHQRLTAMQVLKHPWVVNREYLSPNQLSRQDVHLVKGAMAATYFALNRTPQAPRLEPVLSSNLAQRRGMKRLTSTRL
# CSNK1A1L, sequence (Q8N752 whole entry): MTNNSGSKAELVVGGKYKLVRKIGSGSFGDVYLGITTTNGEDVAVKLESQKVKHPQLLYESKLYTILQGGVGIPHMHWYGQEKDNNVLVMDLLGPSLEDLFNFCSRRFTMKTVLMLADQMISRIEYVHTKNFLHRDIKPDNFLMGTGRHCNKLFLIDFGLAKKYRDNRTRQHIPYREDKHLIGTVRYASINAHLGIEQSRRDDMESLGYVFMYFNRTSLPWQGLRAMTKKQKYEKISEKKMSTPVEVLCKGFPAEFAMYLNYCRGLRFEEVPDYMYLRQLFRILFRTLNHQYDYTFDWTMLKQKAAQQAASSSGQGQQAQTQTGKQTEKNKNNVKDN
smiles,measurement,setting,value
"CN1C(=O)[C@@H](N2CCc3c(nn(Cc4ccccc4)c3C(N)=O)C2=O)COc2cc(Cl)ccc21 [Compound 10, (S)-2-benzyl-6-(8-chloro-5-methyl-4-oxo-2,3,4,5-tetrahydrobenzo[b][1,4]oxazepin-3-yl)-7-oxo-4,5,6,7-tetrahydro-2H-pyrazolo[3,4-c]pyridine-3-carboxamide]",receptor occupancy at 1 µM,[1],-5.62%
same,receptor occupancy at 1 µM,[2],-4.28%
same,receptor occupancy at 1 µM,[3],1.52%
same,receptor occupancy at 1 µM,[4],-16.9%
same,receptor occupancy at 1 µM,[5],5.36%
same,receptor occupancy at 1 µM,[6],2.69%
same,receptor occupancy at 1 µM,[7],-5.78%
same,receptor occupancy at 1 µM,[8],-1.12%
same,receptor occupancy at 1 µM,[9],-2.07%
same,receptor occupancy at 1 µM,[10],-11.5%
same,receptor occupancy at 1 µM,[11],-6.21%
same,receptor occupancy at 1 µM,[12],8.46%
same,receptor occupancy at 1 µM,[13],-2.91%
same,receptor occupancy at 1 µM,[14],5.69%
same,receptor occupancy at 1 µM,[15],-2.16%
same,receptor occupancy at 1 µM,[16],3.71%
same,receptor occupancy at 1 µM,[17],10.7%
same,receptor occupancy at 1 µM,[18],15.8%
same,receptor occupancy at 1 µM,[19],4.78%
same,receptor occupancy at 1 µM,[20],-1.95%
same,receptor occupancy at 1 µM,[21],3.25%
same,receptor occupancy at 1 µM,[22],1.05%
same,receptor occupancy at 1 µM,[23],-11.5%
same,receptor occupancy at 1 µM,[24],13.7%
same,receptor occupancy at 1 µM,[25],3.9%
same,receptor occupancy at 1 µM,[26],4.81%
same,receptor occupancy at 1 µM,[27],-2.56%
same,receptor occupancy at 1 µM,[28],16.7%
same,receptor occupancy at 1 µM,[29],6.33%
same,receptor occupancy at 1 µM,[30],-12%
same,receptor occupancy at 1 µM,[31],10.7%
same,receptor occupancy at 1 µM,[32],3.71%
same,receptor occupancy at 1 µM,[33],-1.01%
same,receptor occupancy at 1 µM,[34],0.288%
same,receptor occupancy at 1 µM,[35],1.19%
same,receptor occupancy at 1 µM,[36],2.77%
same,receptor occupancy at 1 µM,[37],4.94%
